Experimental data taken from US7071206B2, “Agents for treating neurodegenerative disorders” (Medivation, Inc., priority 1995, dated 2006).
Values joined by “and” are separate entries in the source; they are usually repeats but may differ in a detail not shown here. Identical values can stand only once. Marks after values point to notes of the source that are not given here.

Test system: patients suffering from Alzheimer's disease
Assay: Clinical trial of dimebon tablets, inventors' scale (E. E. Bukatina et al.; 0 = absence of a symptom, 4 = greatest manifestation)
Format: in vivo, human
Details: for Degree of irritability, M +/− m: mean of 7 patients having this symptom; for Values of cognitive functions, M +/− m: mean of 7 patients with unprofound dementia; for Marked depressive manifestation, M +/− m: mean of 8 patients with evident depression prior to treatment; for Intensity of headache, M +/− m: mean of 10 patients having this symptom; for number of patients with abatement or complete cessation of headaches / share of patients with abatement or complete cessation of headaches: of 10 patients
Procedure: The test was carried out under the direct supervision by two of the inventors, namely E. E. Bukatina and V. Grigorieva, in 14 patients who agreed to take part in the tests, 13 of whom lived in a boarding house for senile persons and one patient lived with their family.
Alzheimer's disease was diagnosed on the basis of criteria ICD-10 NINCDS ADRDA.
Dimebon in the form of tablets (comprising 10 mg of dimebon, 30 mg of lactose, 5 mg of magnesium stearate was prescribed for oral administration in a dose of 0.02 g three to times a day. The patients living in the boarding house received dimebon for 58 days. A patient (observation 14) who was under outpatient observation continued taking the agent for a month after the completion of the tests.
Before the treatment with dimebon, and at 4 and 8 weeks after treatment the patients were examined according to Hazegawa's scale and the inventors' scale (“Social and Clinical Psychiatry”, 1992, No.4, pp.29–37) which includes the following indexes: (1) orientation in locality, time, immediate surroundings and one's own personality; (2) orientation in space; (3) memory for the past; (4) memory for the present; (5) “life in the past”; (6) (a) articulation, (b) difficulty in finding words, and distortion of words; (c) naming of objects; (d) following instructions; (7) concentration (of attention); (8) an affective sphere; (a) high spirits, (b) low spirits; (9) delirium; (10) hearing hallucinations; (11) visual hallucinations; (12) senile or senile-like confusion (when motion anxiety is accompanied by the revival of the past experience); (13) irritability; (14) anxiety; (15) asthenia; (16) headaches; (17) dizziness; (18) tearfulness; (19) spontaneous activity; (20) elementary self-service; and (21 control of sphincters.
According to the Hazegawa's scale, the 0 score indicates the poorest result; on the contrary, according to the inventors' scale, the 0 score indicates the absence of a symptom 4 score indicates the greatest manifestation thereof. […] Before the therapy was started, the patients had been independently examined by two doctors who used the inventors' scale. The examination during the treatment was carried out by the doctors using both the scales. The evaluation according to all the inventors' scale points during all the tests and their variations during the treatment with dimebon are given in the Appendix.
According to the inventors' scale, the degree of the disturbance if the cognitive functions was determined by a sum of evaluations according to the first 5 scale points reflecting the condition of memory, orientation and relation with the reality. The disturbance of speech was dealt with separately and was determined by a sum of evaluations according to items 6b-6d.
Both absolute evaluations of the signs under investigation (the evaluation prior to treatment is a mean evaluation of the two examinations) and variations in them were analysed in the course of therapy. In doing so, only those changes that were beyond the range of evaluations obtained in two pre-treatment examinations were taken into consideration.
The test results reflected the condition of the patients at the time of the examination. Any changes in the metal state observed in the interval between the tests and disappearing by the moment of examination according to the scale were described in the section “Clinical Observations”.
The statistical data processing was carried out by means of Student's t-test and Fisher's “Fi” criterion.

[1] = change at 8 weeks vs K1, K2, per patient, listed as dimebon
[2] = marked (by more than 1 score), 8 weeks
[3] = mean of 14 patients, after 4 weeks
[4] = mean of 14 patients, after 8 weeks
[5] = of 11 patients with depressive symptoms prior to treatment, 4 weeks
[6] = of 11 patients with depressive symptoms prior to treatment, 8 weeks
[7] = score after 4 weeks, per patient, listed as dimebon
[8] = score after 8 weeks, per patient, listed as dimebon

## Cc1ccc2c(c1)c1c(n2CCc2ccc(C)nc2)CCN(C)C1 [No. 10, 2,8-dimethyl-5-[2-(6-methyl-3-pyridyl)ethyl]-2,3,4,5-tetrahydro-1H-pyrido[4,3-b]indole]
[1]
  2. Orientation in space, Changes (8 weeks): +1 and +0.5
  4. Memory for the present, Changes (8 weeks): −0.5 (2×) and +1 and +0.5 (4×)
  5. Life in the past, Changes (8 weeks): +0.5 (4×) and +1 (2×)
  6b. Difficulty in finding words, Changes (8 weeks): 0 and −0.5
  6c. Naming of objects, Changes (8 weeks): +0.5 (3×) and +1
  7. Concentration, Changes (8 weeks): −0.5 (2×) and +0.5
  8b. Lower spirits, Changes (8 weeks): +1.5 and +1 (3×) and +2 and −1 and +0.5 and −5
  9. Delirium, Changes (8 weeks): +1.5 and 0 (2×) and +2
  13. Irritability, Changes (8 weeks): +1.5 and +1 (2×) and −1.5 and 0
  14. Anxiety, Changes (8 weeks): +0.5 and +1 and −0.5
  16. Headache, Changes (8 weeks): +0.5 and +2 and +1.5 and −1
  17. Dizziness, Changes (8 weeks): 1 and −2 (2×) and +1 (2×) and −0.5
  18. Tearfulness, Changes (8 weeks): +1 and +2
  19. Spontaneous activity, Changes (8 weeks): +1 and 0 (3×) and −1
  20. Elementary self-service, Changes (8 weeks): +1 and −1
  6d. Performing instructions, Changes (8 weeks): −1.5 and −1 (2×) and +0.5 and +1 (2×) and 0
During treatment
  aggravation or emergence of irritability: Not a single observation
  first emergence of delirium: not a single case
[2]
  Speech functions (items 6b, c, d): deteriorations, %: 2.4%
  Speech functions (items 6b, c, d): deteriorations, abs.: 1
After 4 weeks
  Degree of irritability, M +/− m: 0.43 +/− 0.28 scores
  Values of cognitive functions, M +/− m: 5.5 +/− 0.79 score
  Marked depressive manifestation, M +/− m: 0.69 +/− 0.23 scores
  Intensity of headache, M +/− m: 0.45 +/− 0.29 scores
  number of patients with abatement or complete cessation of headaches: Five
  share of patients with abatement or complete cessation of headaches: 50%
After 8 weeks
  Degree of irritability, M +/− m: 0.29 +/− 5.17 scores
  Values of cognitive functions, M +/− m: 3.93 +/− 0.5 score
  Marked depressive manifestation, M +/− m: 0.69 +/− 0.18 scores
  Intensity of headache, M +/− m: 0.9 +/− 0.31 scores
  number of patients with abatement or complete cessation of headaches: 3 patients
  share of patients with abatement or complete cessation of headaches: 30%
Mean of 7 patients with unprofound (mild) dementia, 4 weeks, listed as Demibon
  Variations of cognitive function, M +/− m: +0.5 +/− 0.14 score
Mean of 7 patients with unprofound (mild) dementia, 4 weeks, listed as dimebon
  Variations of cognitive function, M +/− m: 0.5±0.14 score
Mean of 7 patients with unprofound (mild) dementia, 8 weeks
  Variations of cognitive function, M +/− m: +1.79 +/− 0.35 score
Mean of 14 patients, 4 weeks
  Variations of cognitive function, M +/− m: −0.43 +/− 0.15 score
  Variations of speech function, M +/− m: −0.18 +/− 0.14
Mean of 14 patients, 8 weeks
  Variations of cognitive function, M +/− m: +1.14 +/− 0.26 score
  Variations of speech function, M +/− m: −0.04 +/− 0.22
[3]
  Evaluation of speech function, M +/− m: 1.61 +/− 0.44 scores
  Values of cognitive function (sum of first 5 scale points), M +/− m: 8.32 +/− 0.93 score
[4]
  Evaluation of speech function, M +/− m: 1.39 +/− 0.47 scores
  Values of cognitive function (sum of first 5 scale points), M +/− m: 7.21 +/− 0.82 score
Moderate (by 1 score), 4 weeks
  Cognitive functions (first 5 scale points): improvements, %: 5.7%
  Cognitive functions (first 5 scale points): improvements, abs.: 4
  Speech functions (items 6b, c, d): deteriorations, %: 2.4%
  Speech functions (items 6b, c, d): deteriorations, abs.: 1
  Speech functions (items 6b, c, d): improvements, %: 7.14%
  Speech functions (items 6b, c, d): improvements, abs.: 3
Moderate (by 1 score), 8 weeks
  Cognitive functions (first 5 scale points): improvements, %: 8.6%
  Cognitive functions (first 5 scale points): improvements, abs.: 6
  Speech functions (items 6b, c, d): deteriorations, %: 4.8%
  Speech functions (items 6b, c, d): deteriorations, abs.: 2
  Speech functions (items 6b, c, d): improvements, %: 7.1%
  Speech functions (items 6b, c, d): improvements, abs.: 3
Of 5 patients with tearfulness prior to treatment, after four weeks
  number of patients showing no signs of tearfulness: 4 patients
[5]
  number of patients in whom the depression abated: 5 patients
  share of patients in whom the depression abated: 45%
[6]
  number of patients with improvement of depression: 6 patients
  share of patients with improvement of depression: 55%
[7]
  2. Orientation in space, 4 weeks: 0 (10×) and 1 and 1.5 (2×) and 0.5
  4. Memory for the present, 4 weeks: 1.5 and 2 (4×) and 1 (3×) and 3 (5×) and 3.5
  5. Life in the past, 4 weeks: 1 (2×) and 1.5 (2×) and 0.5 (2×) and 2.5 (3×) and 2 (4×) and 3
  6b. Difficulty in finding words, 4 weeks: 0 (9×) and 1 (2×) and 1.5 and 0.5 and 2
  6c. Naming of objects, 4 weeks: 0 (7×) and 1 (4×) and 2 (3×)
  7. Concentration, 4 weeks: 1.5 (2×) and 0 and 1 (3×) and 3 (4×) and 2 (3×) and 0.5
  8b. Lower spirits, 4 weeks: 1 (4×) and 0 (7×) and 0.5 (2×) and 2
  9. Delirium, 4 weeks: 0 (9×) and 1 (2×) and 2.5 and 1.5 and 2
  13. Irritability, 4 weeks: 0 (12×) and 2 and 1
  14. Anxiety, 4 weeks: 0 (10×) and 1 (4×)
  15. Asthenia, 4 weeks: 0 (11×) and 1 (2×) and 0.5
  16. Headache, 4 weeks: 0.5 and 0 (11×) and 1 and 3
  17. Dizziness, 4 weeks: 0.5 and 0 (8×) and 1 (2×) and 2 and 2.5 and 3
  18. Tearfulness, 4 weeks: 1 and 0 (13×)
  19. Spontaneous activity, 4 weeks: 1.5 and 1 (5×) and 0.5 and 2 (4×) and 0 (2×) and 3
  20. Elementary self-service, 4 weeks: 0 (13×) and 1
  6d. Performing instructions, 4 weeks: 1 (4×) and 0 (8×) and 0.5 and 2
Score after 8 weeks of treatment, per patient, listed as dimebon
  1. Orientation in locality and time, 8 weeks: 2 (4×) and 3 (2×) and 1.5 (2×) and 0 and 0.5 (2×) and 1 (2×)
Score after 8 weeks, per patient
  18. Tearfulness, 8 weeks: 0
[8]
  2. Orientation in space, 8 weeks: 0 (11×) and 1.5 and 1
  4. Memory for the present, 8 weeks: 1 (4×) and 0.5 and 1.5 (2×) and 3 (4×) and 2 (2×) and 2.5
  5. Life in the past, 8 weeks: 0.5 (5×) and 1 (2×) and 3 (3×) and 1.5 and 2.5 (2×) and 2
  6b. Difficulty in finding words, 8 weeks: 0 (11×) and 1.5 and 2 (2×)
  6c. Naming of objects, 8 weeks: 0 (9×) and 1 (2×) and 2 (2×) and 1.5
  7. Concentration, 8 weeks: 1 (5×) and 0 and 3 and 2 (3×) and 3.5 and 2.5 and 4 and 0.5
  8b. Lower spirits, 8 weeks: 0.5 (2×) and 0 (7×) and 1 (4×) and 1.5
  9. Delirium, 8 weeks: 0 (9×) and 1.5 (2×) and 1 (2×) and 2
  13. Irritability, 8 weeks: 0 (12×) and +1 and 1
  14. Anxiety, 8 weeks: 0 (11×) and 1 (2×) and 0.5
  15. Asthenia, 8 weeks: 0 (13×) and 0.5
  16. Headache, 8 weeks: 0 (8×) and 1 (2×) and 2 and 1.5 and 0.5 and 3
  17. Dizziness, 8 weeks: 0 (8×) and 1.5 and 3 and 2 and 1 (3×)
  19. Spontaneous activity, 8 weeks: 1 (7×) and 1.5 and 0 (3×) and 2 (2×) and 4
  20. Elementary self-service, 8 weeks: 0 (13×) and 2
  6d. Performing instructions, 8 weeks: 1 (5×) and 2.5 and 0 (8×)
Slight (by 0.5 score), 4 weeks
  Cognitive functions (first 5 scale points): improvements, %: 5.7* %
  Cognitive functions (first 5 scale points): improvements, abs.: 4*
  Speech functions (items 6b, c, d): improvements, %: 2.4%
  Speech functions (items 6b, c, d): improvements, abs.: 1
Slight (by 0.5 score), 8 weeks
  Cognitive functions (first 5 scale points): improvements, %: 25.7* %
  Cognitive functions (first 5 scale points): improvements, abs.: 18*
  Speech functions (items 6b, c, d): deteriorations, %: 2.4%
  Speech functions (items 6b, c, d): deteriorations, abs.: 1
  Speech functions (items 6b, c, d): improvements, %: 7.14%
  Speech functions (items 6b, c, d): improvements, abs.: 3
total, 4 weeks
  Cognitive functions (first 5 scale points): improvements, %: 11.4%
  Cognitive functions (first 5 scale points): improvements, abs.: 8
  Speech functions (items 6b, c, d): deteriorations, %: 2.4%
  Speech functions (items 6b, c, d): deteriorations, abs.: 1
  Speech functions (items 6b, c, d): improvements, %: 9.5%
  Speech functions (items 6b, c, d): improvements, abs.: 4
total, 8 weeks
  Cognitive functions (first 5 scale points): improvements, %: 34.3%
  Cognitive functions (first 5 scale points): improvements, abs.: 24
  Speech functions (items 6b, c, d): deteriorations, %: 9.6%
  Speech functions (items 6b, c, d): deteriorations, abs.: 4
  Speech functions (items 6b, c, d): improvements, %: 14.3%
  Speech functions (items 6b, c, d): improvements, abs.: 6
Whole period of investigations, all patients
  Item 10. hearing hallucinations: Item 10. No hearing hallucinations were observed throught the whole period of investigations.
